From patent publication US20200140951A9, “Transcriptional system and uses thereof for single cell detection” (Université Laval, priority 2017, published 2020)
Values joined by “and” are separate entries in the source; they are usually repeats but may differ in a detail not shown here. Identical values can stand only once.

Columns and labels:
22Rv1 cells [1] = assay: Growth curves of PCa cells (cell counter); assay type: cell-based; conditions: DHT 1 nM + antiandrogen 10 μM; six days of culture
Procedure: The cells were trypsinized and counted using a cell counter after six days of culture. Relative cell count=number of cells at each time point÷number of cells at 0 h. Data represent technical triplicates±SD.

[2] = system: AR transcriptional activity in 22Rv1-GFP cells; conditions: DHT 1 nM + antiandrogen 10 μM; 48 h
Procedure: (§1) (A) Scheme for targeting spiked PCa cells from urine. (B) PCa cells (22Rv1 stably expressing mCherry) were spiked in the urine of an healthy individual. […] Seventy-two hours after infection the cells were imaged by adding D-luciferin substrate and with an exposure time of 5 min per image using the bioluminescence microscope. […] Urine samples from healthy patients were spiked with 250 PCa cells stably expressing GFP (22Rv1-GFP or LAPC4-GFP). Urine was spun down to collect all the cells. These cells were infected with 5×10^5 virus particles of PCA3-Cre-PSEBC-ITSTA. […] Forty-eight hours post treatment imaging was repeated to assess response on the same cells to determine change in luciferase expression. Relative grey intensity=((sum grey intensity per ROI−sum grey intensity of background)÷sum grey intensity at 0 h)×100).
(§2) Urine samples from healthy patients were spiked with 250 PCa cells stably expressing GFP (22Rv1-GFP or LAPC4-GFP). Urine was spun down to collect all the cells. These cells were infected with 5×10^5 virus particles of PCA3-Cre-PSEBC-ITSTA. […] Forty-eight hours post treatment imaging was repeated to assess response on the same cells to determine change in luciferase expression. Relative grey intensity=((sum grey intensity per ROI−sum grey intensity of background)÷sum grey intensity at 0 h)×100).

[3] = system: AR transcriptional activity in LAPC4-GFP cells; conditions: 48 h
Procedure: as §1, §2

[4] = system: AR transcriptional activity in PCa cells from urine/bladder wash of patients
Source text: (A) & (B) Images show the H&E staining and IHC using anti-PSA for castration sensitive prostate cancer (CSPC) and castration resistance prostate cancer (CRPC) patients, case 9 and 11 respectively. (C), (D), (E) & (F) Graphs show single cell response to treatment detected with PCA3-Cre-PSEBC-ITSTA in PCa cells from case 9 and 11. Urine/bladder wash from patients post-DRE was sampled and spun down to collect all the cells. These cells were infected with 5×10^5 virus particles of PCA3-Cre-PSEBC-ITSTA. […] Forty-eight hours post treatment imaging was repeated to assess response on the same cells to determine change in expression. Relative grey intensity=((sum grey intensity per ROI−sum grey intensity of background)÷ sum grey intensity at 0 h)×100).
(D) Images show the H&E staining and IHC using anti-PSA for castration resistance prostate cancer (CRPC) patients 11. […] Urine or bladder wash from patients was sampled and spun down to collect all the cells. These cells were infected with 5×10^5 virus particles of PCA3-Cre-PSEBC-ITSTA. […] Forty-eight hours post treatment imaging was repeated to assess response on the same cells.
Forty-eight hours later, single cell bioluminescence was measured again. Single cell response to antiandrogen was determined and cells were considered as resistant if luciferase activity increased despite antiandrogen treatment.
Forty-eight hours post-treatment, single cell bioluminescence was measured again. For case 22, sampling was done as a naïve state before any treatment was received. Similar analysis as cell lines was performed.
The above described procedure for isolation was used to isolate cells from these samples. The samples were then infected with 5×10^5 ivp of PCA3-Cre-PSEBC-TSTA-fl adenovirus. […] Forty-eight hours later, bioluminescence imaging was repeated on the same cells. Percentage of targeted cells=(number bioluminescence positive cells÷number m-cherry positive cells)×100. The sum of gray intensity values was determined for single cells before and after treatment using CellSens software. Relative gray intensity=((sum gray intensity per ROI−sum gray intensity of background)÷sum gray intensity at 0 h)×100).

[5] = system: AR activity in LAPC4-GFP single cells; assay: Single cell treatment response, PSEBC-TSTA bioluminescence microscopy; assay type: cell-based; conditions: for cells with decrease in fl activity / cells with increase in fl activity: n=10 cells, 48 h treatment, DHT 1 nM or DHT+Enz 1 nM+10 μM
Procedure: Forty-eight hours post-infection, the cells were imaged after D-luciferin addition. […] GFP biofluorescence imaging was then performed every 5 h to track the cells. After 48 hours of treatment, luciferase imaging was repeated to determine the change in fl expression. […] The corresponding cells tracked and imaged by biofluorescence microscopy is also shown. […] LAPC4-GFP cells were infected with PCA3-3STA, treated and imaged as described in (A). (D) Upper panel: Scheme of the method used to isolate and image spiked PCa cells from blood. […] Every 5 h, GFP biofluorescence imaging was performed to track the cells. At 48 h, luminescence imaging was repeated to determine single cell fl expression changes. Lower panels: Biofluorescence and bioluminescence images of blood spiked-LAPC4-GFP cells transduced with PSEBC-TSTA after PCa cell isolation. (E) Bioluminescence microscopy quantification of single cell responses to AR-antagonists after PSEBC-TSTA transduction of PCa spiked cells (LAPC4-GFP). Relative grey intensity=((sum grey intensity per ROI−sum grey intensity of background)÷sum grey intensity at 0 h)×100. Data represent technical triplicates±SD.
Forty-eight hours after infection, the cells were imaged by adding D-luciferin and an exposure time of 15 secs per image under bioluminescence microscopy. […] GFP biofluorescence imaging was performed every 5 h to track the cells. After 48 hours, luminescence imaging was performed again on the same cells to determine the changes in fl activity. Relative grey intensity was quantified for n=10 cells in each treatment condition before and after treatment. Relative grey intensity=((sum grey intensity per ROI−sum grey intensity of background)÷sum grey intensity at 0 h)×100. Each ROI defines a single cell.
To track the change in position and growth of single cells in which fl activity was measured, biofluorescence microscopy imaging was performed every 5 h for 48 h (GFP-positive cells) after which time bioluminescence imaging and quantification were repeated on the same cells. Sum grey intensity was then determined for single cells before and after treatment using the cellSens soft-ware. Relative grey intensity=((sum grey intensity per ROI−sum grey intensity of background)÷sum grey intensity at 0 h)×100.

22Rv1 cells [6] = assay: Viability assay (resazurin); assay type: cell-based; conditions: DHT 1 nM + antiandrogen 10 μM
Procedure: (§3) LAPC4, and 22Rv1 cells were seeded. […] The cells proliferation was measured using resazurin. Relative cell count=(Fluorescence at each time point÷fluorescence at 0 h). Data represents technical triplicates±SD.

LAPC4 cells = assay: Viability assay (resazurin); assay type: cell-based; conditions: DHT 1 nM + antiandrogen 10 μM
Procedure: as §3

[7] = system: AR transcription in LNCaP-GFP cells; assay: Single cell treatment response of spiked cells isolated from blood, PSEBC-TSTA; assay type: cell-based; conditions: DHT+Enz 1 nM+10 μM; 48 h
Procedure: FIG. 15 LNCaP cells displaying greater cell-to-cell AR-transcriptional homogeneity upon treatment when compared to LAPC4 cells. […] Forty-eight hours after infection, the cells were imaged after an exposure time of 15 secs per image under bioluminescence microscopy. […] Biofluorescence microscopy imaging was performed for each well for 48 h, with images taken every 5 h to track the cells. Luciferase imaging was performed again on the same cells to determine the change in fl expression.
Blood was collected from a healthy donor and placed in a heparin-coated tube. This study was approved by the Institutional Review Board of the CHU de Quebec Hospital, Quebec, QC, Canada. Informed consent was obtained by the donor for blood sampling. All experiments were performed in accordance with relevant guidelines and regulations. LAPC4 and LNCaP cells were added to the blood sample (500 cells/3 ml of blood), followed by a custom-made RosetteSep cocktail ([…] Technologies, Vancouver, BC, Canada) at a volume of 50 μl per ml. The sample was gently mixed and incubated thereafter at room temperature for 20 min. Fifteen milliliters of Ficoll-Paque Plus (GE healthcare Life Sciences, Mississauga, ON, Canada) were then placed in a 50 ml SepMate tube ([…] Technologies) 31 and blood was poured gently along the walls of the tube onto the Ficoll layer. […]

Compound	growth inhibition (relative cell count) (22Rv1 cells [1])	percentage of cells with increased activity relative to DHT treated group [2] [%]	cells with decrease in luciferase activity ([3]; DHT 1 nM + Bic 10 μM) [%]	cells with increase in luciferase activity ([3]; DHT 1 nM + Bic 10 μM) [%]	percentage of cells with increased activity relative to DHT treated group ([3]; DHT 1 nM + antiandrogen 10 μM) [%]	cells with decrease in PSEBC activity [4]	cells with increase in fl expression [4] [%]	level of AR activity of AR active cells (relative mean luminescence activity per cell) [4] [%]	urine PCa cells with increase in PSEBC promoter dependent fl activity compared to DHT only group [4]	urine tumor cells AR active (relative fraction of AR active cells) [4] [%]	induction of sum of fl activity of ten single cells ([5]; DHT 1 nM, 48 h) [fold]	cells with decrease in fl activity [5] [%]	cells with increase in fl activity [5] [%]	growth inhibition (resazurin proliferation) (22Rv1 cells [6])	growth inhibition (resazurin proliferation) (LAPC4 cells)	effect on DHT induction of sum of fl activity of ten single cells ([5]; DHT 1 nM + antiandrogen 10 μM, 48 h)	single cell AR transcriptional response pattern [7]
CC(O)(CS(=O)(=O)c1ccc(F)cc1)C(=O)Nc1ccc(C#N)c(C(F)(F)F)c1 (centres unmarked) [Bic, bicalutamide]	not inhibited	114	60	40	14	80% and 60%	50	418.5	44% and 67%	63	–	–	–	–	–	–	–
C[C@]12CCC(=O)C[C@@H]1CC[C@@H]1[C@@H]2CC[C@]2(C)[C@@H](O)CC[C@@H]12 [DHT, dihydrotestosterone]	–	–	–	–	–	60%	–	–	–	–	8.8	20	80	–	–	–	–
CNC(=O)c1ccc(N2C(=S)N(c3ccc(C#N)c(C(F)(F)F)c3)C(=O)C2(C)C)cc1F [Enz, enzalutamide]	–	–	–	–	–	–	–	–	–	–	–	70	30	did not display inhibited growth	displayed inhibited growth	inhibited	homogeneous response
